Measurements published in ChEMBL document CHEMBL3102719, “Ligands of the neuropeptide Y Y2 receptor” (Bioorg Med Chem Lett, 2014).
Non-standard residues stand in square brackets, D forms with d. Residues, ends and D or L forms follow the SMILES beside them. *: point of attachment. Palmitoyl = CCCCCCCCCCCCCCCC(=O)*; Ahx = NCCCCCC(=O)O

How the values were obtained:
[1] = target: T1, Neuropeptide Y receptor type 2 (Homo sapiens, UniProt P49146); assay: Displacement of [125I]-PYY from human NPYY2 receptor
T1 sequence (P49146 whole entry): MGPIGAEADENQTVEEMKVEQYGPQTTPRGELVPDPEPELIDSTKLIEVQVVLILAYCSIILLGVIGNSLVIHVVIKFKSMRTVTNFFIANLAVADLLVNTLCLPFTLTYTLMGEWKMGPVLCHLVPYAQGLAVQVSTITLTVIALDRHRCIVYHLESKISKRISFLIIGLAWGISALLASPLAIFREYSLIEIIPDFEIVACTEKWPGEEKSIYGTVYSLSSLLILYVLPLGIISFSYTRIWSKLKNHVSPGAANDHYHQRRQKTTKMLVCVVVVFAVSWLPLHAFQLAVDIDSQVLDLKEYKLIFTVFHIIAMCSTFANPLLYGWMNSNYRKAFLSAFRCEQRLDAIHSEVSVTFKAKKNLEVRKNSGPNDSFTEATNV

[2] = target: T1, Neuropeptide Y receptor type 2; assay: Displacement of [125I]-PYY from NPYY2 receptor (unknown origin)
[3] = organism: Homo sapiens; assay: Selectivity ratio of NPYY5 receptor (unknown origin) to NPYY2 receptor (unknown origin)
[4] = organism: Homo sapiens; assay: Selectivity ratio of NPYY1 receptor (unknown origin) to NPYY2 receptor (unknown origin)
[5] = Half life in rat at 10 mg/kg, sc; format: ADME, organism-based; set-up: dose 10 mg/kg, route subcutaneous; conditions: in vivo
[6] = target: T2, Neuropeptide Y receptor type 2 (Homo sapiens) (UniProt P49146); assay: Antagonist activity at NPYY2 receptor (unknown origin)
T2 sequence (whole entry): T1 sequence (P49146 whole entry)

[7] = organism: Homo sapiens; assay: Selectivity ratio of NPYY4 receptor (unknown origin) to NPYY2 receptor (unknown origin)
[8] = Bioavailability in rat at 10 mg/kg, sc; format: ADME, organism-based; conditions: in vivo
[9] = Cmax in rat at 10 mg/kg, sc; format: ADME, organism-based; set-up: dose 10 mg/kg, route subcutaneous; conditions: in vivo
[10] = Oral bioavailability in rat at 10 mg/kg; format: ADME, organism-based; conditions: in vivo
[11] = target: T1, Neuropeptide Y receptor type 2; assay: Binding affinity to NPYY2 receptor (unknown origin) preincubated for 20 mins
[12] = target: T3, Neuropeptide Y receptor type 5 (Homo sapiens, UniProt Q15761); assay: Binding affinity to NPYY5 receptor (unknown origin)
T3 sequence (Q15761 whole entry): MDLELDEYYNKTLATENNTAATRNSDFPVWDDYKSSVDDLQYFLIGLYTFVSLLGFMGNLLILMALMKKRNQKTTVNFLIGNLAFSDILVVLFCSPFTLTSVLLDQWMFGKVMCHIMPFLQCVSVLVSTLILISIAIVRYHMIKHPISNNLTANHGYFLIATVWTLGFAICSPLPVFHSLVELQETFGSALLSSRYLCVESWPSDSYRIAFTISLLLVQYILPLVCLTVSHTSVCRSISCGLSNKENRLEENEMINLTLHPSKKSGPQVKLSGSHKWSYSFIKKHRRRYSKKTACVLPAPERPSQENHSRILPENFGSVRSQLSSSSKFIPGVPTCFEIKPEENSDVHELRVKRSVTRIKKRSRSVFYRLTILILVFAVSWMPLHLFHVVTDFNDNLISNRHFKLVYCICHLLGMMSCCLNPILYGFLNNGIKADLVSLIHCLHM

[13] = target: T4, Alpha-1A adrenergic receptor (Homo sapiens, UniProt P35348); assay: Binding affinity to adrenergic alpha1A receptor (unknown origin)
T4 sequence (P35348 whole entry): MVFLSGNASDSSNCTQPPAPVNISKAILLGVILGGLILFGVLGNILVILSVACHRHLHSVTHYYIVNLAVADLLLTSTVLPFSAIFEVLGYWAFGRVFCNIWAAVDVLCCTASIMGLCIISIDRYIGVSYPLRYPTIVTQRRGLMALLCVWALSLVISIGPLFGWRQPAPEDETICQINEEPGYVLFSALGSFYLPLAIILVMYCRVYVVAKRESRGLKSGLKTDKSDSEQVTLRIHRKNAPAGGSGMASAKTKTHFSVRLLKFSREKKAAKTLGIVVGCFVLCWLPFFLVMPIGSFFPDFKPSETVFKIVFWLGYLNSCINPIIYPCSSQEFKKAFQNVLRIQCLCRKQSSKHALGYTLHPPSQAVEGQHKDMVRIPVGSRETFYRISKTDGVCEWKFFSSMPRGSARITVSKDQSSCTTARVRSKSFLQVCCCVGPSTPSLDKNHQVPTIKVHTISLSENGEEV

[14] = target: Kappa-type opioid receptor (Homo sapiens, UniProt P41145); assay: Binding affinity to kappa opioid receptor (unknown origin)
[15] = target: Mu-type opioid receptor (Homo sapiens, UniProt P35372); assay: Binding affinity to mu opioid receptor (unknown origin)
[16] = system: Mus musculus; assay: Anticonvulsant activity in ip dosed mouse assessed as protection against 6 Hz psychomotor seizure; format: functional
[17] = target: T1, Neuropeptide Y receptor type 2; assay: Binding affinity to NPYY2 receptor (unknown origin)

Chain of Mu-type opioid receptor (P35372 whole entry): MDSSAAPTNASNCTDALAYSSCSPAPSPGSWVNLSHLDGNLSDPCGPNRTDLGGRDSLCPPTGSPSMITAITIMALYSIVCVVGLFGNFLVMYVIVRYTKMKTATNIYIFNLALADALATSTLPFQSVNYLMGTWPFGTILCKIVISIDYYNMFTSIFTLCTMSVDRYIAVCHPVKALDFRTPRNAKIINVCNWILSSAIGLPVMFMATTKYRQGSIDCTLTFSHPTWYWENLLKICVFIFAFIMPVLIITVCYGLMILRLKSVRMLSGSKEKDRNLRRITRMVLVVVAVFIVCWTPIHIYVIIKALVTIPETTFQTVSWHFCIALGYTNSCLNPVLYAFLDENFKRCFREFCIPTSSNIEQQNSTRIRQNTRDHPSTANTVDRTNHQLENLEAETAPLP
Chain of Kappa-type opioid receptor (P41145 whole entry): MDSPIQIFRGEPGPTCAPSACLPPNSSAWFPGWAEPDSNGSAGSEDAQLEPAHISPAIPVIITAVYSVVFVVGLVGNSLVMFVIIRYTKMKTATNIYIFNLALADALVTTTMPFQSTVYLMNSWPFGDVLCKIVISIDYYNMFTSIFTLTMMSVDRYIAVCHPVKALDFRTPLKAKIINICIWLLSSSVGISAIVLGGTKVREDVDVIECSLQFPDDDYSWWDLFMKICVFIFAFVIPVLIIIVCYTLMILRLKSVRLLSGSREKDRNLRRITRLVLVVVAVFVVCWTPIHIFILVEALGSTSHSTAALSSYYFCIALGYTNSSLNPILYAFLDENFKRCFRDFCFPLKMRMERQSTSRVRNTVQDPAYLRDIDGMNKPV

In the case of CCN(CC)C(=O)C(c1ccccc1)N1CCN(c2ccc(-c3c(C)noc3C)cc2F)CC1 (stereo not given), the IC50 [1] is reported as 10000 nM.

For CN(C)CCCN(C(=O)[C@H]1C[C@@H]1c1ccccc1)c1ccccc1SCc1ccccc1 (relative stereo), the IC50 [2] was 3700 nM.

In the case of CCC(CC)C(=O)Nc1ccc(N2CCN(C(c3ccccc3)c3nc(-c4ccccc4)no3)CC2)c(F)c1 (stereo not given), the IC50 [1] is reported as 720 nM.

Compound CCC(CC)C(=O)Nc1ccc(N2CCN(C(c3ccccc3)c3nc(C(C)C)no3)CC2)c(F)c1 (stereo not given) has an IC50 [1] of 170 nM.

CCN(CC)C(=O)C(c1ccccc1)N1CCN(c2ccc(NC(=O)c3ccccc3-c3cccnc3)cc2F)CC1 (stereo not given) showed a Selectivity ratio [3] greater than 100, a Selectivity ratio [4] greater than 100 and a half-life [5] of 49.8 min. For the same compound, the pKb [6] was 8.04, the Selectivity ratio [7] was greater than 100 and the bioavailability [8] was 100%. It also gave a Cmax [9] of 4.35 µM and a bioavailability [10] of 6%.

In the case of CCN(CC)C(=O)C(c1ccccc1)N1CCN(c2ccc(NC(=O)c3c(C)cnn3CC)cc2F)CC1 (stereo not given), the IC50 [1] is reported as 35 nM.

CC(=O)N1CCc2ccc(N(C/C=C\c3ccccc3)C3CCN(Cc4ccccc4)CC3)cc21 showed an IC50 [1] of 22000 nM.

In the case of CCN(CC)C(=O)C(c1ccccc1)N1CCN(c2ccc(-c3cc(=O)n(C(C)C)[nH]3)cc2F)CC1 (stereo not given), the IC50 [1] is reported as 340 nM.

Compound CCC(CC)C(=O)Nc1ccc(N2CCN(C(c3cccc(F)c3)c3ncco3)CC2)c(C#N)c1 (stereo not given) has a pKb [6] of 7.9.

Work on CCC(=O)NCCNC(=O)CCCC(=O)NC(=N)NCCC[C@H](NC(=O)CC1(CC(=O)N2CCN(C3c4ccccc4NC(=O)c4ccccc43)CC2)CCCC1)C(=O)NCCn1c(=O)n(-c2ccccc2)n(-c2ccccc2)c1=O (stereo not given in full) yielded a Ki [11] of 9.9 nM.

Compound CCN(CC)C(=O)C(c1ccccc1)C1CCN(c2ccc(NC(=O)C3CCOC3)cc2F)CC1 (stereo not given) has an IC50 [1] of 25 nM.

Ac-LRHYLNLLTRQRY-NH2 showed a Ki [12] greater than 1000 nM.

CCc1nc(C(c2ccccc2)N2CCN(c3ccc(NC(=O)C(CC)CC)cc3F)CC2)no1 (stereo not given) showed an IC50 [1] of 150 nM.

With N=C(N)NCCCC(NC(=O)CC1(CC(=O)N2CCN(C3c4ccccc4NC(=O)c4ccccc43)CC2)CCCC1)C(=O)NCCn1c(=O)n(-c2ccccc2)n(-c2ccccc2)c1=O (single isomer, unassigned) the Ki [13] was 360 nM, the Ki [14] was 948 nM and the Ki [15] was 323 nM.

CCC(CC)C(=O)Nc1ccc(N2CCN(C(c3ccccc3)c3nc(C)no3)CC2)c(F)c1 (stereo not given) showed a pKb [6] of 7.4.

Work on CC(=O)N1CCc2ccc(N(CC#Cc3ccccc3)C3CCN(Cc4ccccc4)CC3)cc21 yielded an IC50 [1] of 9200 nM.

Compound CN(C)CCCN(C(=O)c1cc2ccccc2s1)c1ccccc1Cc1ccccc1 has an IC50 [2] of 450 nM.

In the case of CCN(CC)C(=O)C(c1ccccc1)N1CCN(c2ccc(-c3cccnc3)cc2F)CC1 (stereo not given), the IC50 [1] is reported as 740 nM.

CCC(CC)C(=O)Nc1ccc(N2CCN(C(c3ccccc3)c3nnc(C(C)C)o3)CC2)c(F)c1 (stereo not given) gave an IC50 [1] of 290 nM.

In the case of CCC(CC)C(=O)Nc1ccc(N2CCN(C(c3ccccc3)C3CCOC3)CC2)c(F)c1 (stereo not given), the IC50 [1] is reported as 34 nM and the pKb [6] is reported as 7.2.

Compound CCC(CC)C(=O)Nc1ccc(N2CCN(C(c3ccccc3)c3cc(C)no3)CC2)c(F)c1 (stereo not given) has an IC50 [1] of 38 nM and a pKb [6] of 7.5.

Compound CCCCCCCCCCCCCCCC(=O)NCCCC[C@H](NC(=O)[C@H](CCCCN)NC(=O)[C@H](CCCCN)NC(=O)[C@H](Cc1ccc(O)cc1)NC(C)=O)C(=O)NCCCCCC(=O)N[C@@H](C)C(=O)N[C@@H](CCCNC(=N)N)C(=O)N[C@@H](Cc1cnc[nH]1)C(=O)N[C@@H](Cc1ccc(O)cc1)C(=O)N[C@H](C(=O)N[C@@H](CC(N)=O)C(=O)N[C@@H](CC(C)C)C(=O)N[C@H](C(=O)N[C@H](C(=O)N[C@@H](CCCNC(=N)N)C(=O)N[C@@H](CCC(N)=O)C(=O)N[C@@H](CCCNC(=N)N)C(=O)N[C@@H](Cc1ccc(O)cc1)C(N)=O)[C@@H](C)O)[C@@H](C)CC)[C@@H](C)CC (Ac-YKKK(Palmitoyl)[Ahx]ARHYINLITRQRY-NH2) has an ED50 [16] of 1.1 mg/kg.

With CCCCCCCCCCCCCCCC(=O)NCCCC[C@H](NC(=O)[C@H](CCCCN)NC(=O)[C@H](CCCCN)NC(=O)[C@H](Cc1ccc(O)cc1)NC(C)=O)C(=O)NCCCCCC(=O)N[C@@H](C)C(=O)N[C@@H](CCCN=C(N)N)C(=O)N[C@@H](Cc1cnc[nH]1)C(=O)N[C@@H](Cc1ccc(O)cc1)C(=O)N[C@H](C(=O)N[C@@H](CC(N)=O)C(=O)N[C@@H](CC(C)C)C(=O)N[C@H](C(=O)N[C@H](C(=O)N[C@@H](CCCN=C(N)N)C(=O)N[C@@H](CCC(N)=O)C(=O)N[C@@H](CCCN=C(N)N)C(=O)N[C@@H](Cc1ccc(O)cc1)C(N)=O)[C@@H](C)O)[C@@H](C)CC)[C@@H](C)CC (Ac-YKKK(Palmitoyl)[Ahx]ARHYINLITRQRY-NH2) the Ki [17] was 26.1 nM.

Work on CCc1noc(C(c2ccccc2)N2CCN(c3ccc(NC(=O)C(CC)CC)cc3F)CC2)n1 (stereo not given) yielded a pKb [6] of 7.45.

With CCC(CC)C(=O)Nc1ccc(N2CCN(C(C(=O)N(CC)CC)c3ccc(Cl)cc3)CC2)c(F)c1 (stereo not given) the IC50 [1] was 100 nM.

Work on CCC(CC)C(=O)Nc1ccc(N2CCN(C(c3ccccc3)c3ncno3)CC2)c(F)c1 (stereo not given) yielded an IC50 [1] of 240 nM.

In the case of CCN(CC)C(=O)C(c1ccccc1)N1CCN(c2ccc(NC(=O)c3c(C)cnn3C(C)(C)C)cc2F)CC1 (stereo not given), the IC50 [1] is reported as 300 nM.

In the case of CCC(CC)C(=O)Nc1ccc(N2CCN(C(c3ccccc3)c3ncccn3)CC2)c(F)c1 (stereo not given), the IC50 [1] is reported as 33 nM.

With CCC(CC)C(=O)Nc1ccc(N2CCN(C(C(=O)N(CC)CC)c3ccc(O)cc3)CC2)c(F)c1 (stereo not given) the IC50 [1] was 100 nM.
